Measurements published in patent publication US8273769B2, “Phenoxy acetic acid derivatives” (Merck Serono SA, priority 2009, dated 2012).

How the values were obtained:
CRTH2 [1] = target: T1, CRTH2 (Homo sapiens, UniProt Q9Y5Y4); assay: [35S]GTPγS binding assay (CHO-CRTH2 cell membranes); format: biochemical; parameters: expressed in transfected cells; host or cells: CHO-CRTH2 cells; settings: for IC50: antagonist mode, fixed concentration of PGD2 (EC80); for Emax: inverse agonists, 100% of Emax = activity with 1 μM PGD2
T1 sequence (Q9Y5Y4 1-395): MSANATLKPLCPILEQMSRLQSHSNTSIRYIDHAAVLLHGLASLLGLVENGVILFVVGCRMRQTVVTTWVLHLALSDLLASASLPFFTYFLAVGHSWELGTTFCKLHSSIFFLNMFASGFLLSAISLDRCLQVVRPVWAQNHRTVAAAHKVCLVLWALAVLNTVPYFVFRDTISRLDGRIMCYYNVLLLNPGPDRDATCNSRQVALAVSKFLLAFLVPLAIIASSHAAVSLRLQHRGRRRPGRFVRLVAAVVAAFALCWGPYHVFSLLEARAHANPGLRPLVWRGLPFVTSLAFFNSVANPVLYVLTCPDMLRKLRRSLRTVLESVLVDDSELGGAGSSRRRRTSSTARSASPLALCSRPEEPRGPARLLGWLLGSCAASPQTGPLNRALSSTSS
Procedure: Adherent CHO cells expressing hCRTH2 (Euroscreen, Belgium) were cultured in 225 cm^2 cell culture flasks (Corning, USA) in 30 ml of medium. After two rinses of phosphate buffered saline (PBS), cells were harvested in 10 ml of PBS containing 1 mM EDTA, centrifuged at 500×g for 5 min at 4° C. and frozen at −80° C. The pellet was re-suspended in 50 mM Tris-HCl, pH 7.4, 2 mM EDTA, 250 mM Sucrose, containing protease inhibitor cocktail tablets, (Complete EDTA-free, Roche, Germany) and incubated 30 min at 4° C. Cells were disrupted by nitrogen cavitation (Parr Instruments, USA) at 4° C. (800 p.s.i. for 30 min), and centrifuged at 500×g for 10 min at 4° C. Pellet containing nuclei and cellular debris was discarded and supernatant was centrifuged 60 min at 4° C. at 45000×g. Membrane pellet was re-suspended in storage buffer (10 mM HEPES/KOH pH 7.4, 1 mM EDTA, 250 mM sucrose, protease inhibitor cocktail tablets) using Dounce homogenization and frozen in liquid nitrogen, and stored at −80° C.
The [^35S]GTPγS assay measures the increase in guanine nucleotide exchange at G-proteins in cell membranes, resulting from agonist (PGD2) binding to CRTH2. This process can be monitored in vitro by incubating cell membranes containing G-proteins and CRTH2 with GDP and [^35S]GTPγS, a radiolabeled, hydrolysis-resistant analogue of GTP (see, Harrison et al., Life Sciences 74, 489-508, 2003). The addition of a Compounds of Formula (I) results in binding to CRTH2 and thus in an inhibition of agonist binding, which can be monitored as inhibition of the stimulation of GTP/GDP exchange.
Briefly, Compounds of Formula (I) are incubated in 96-well scintillating white polystyrene plates (Perkin Elmer, USA) in a final volume of 200 μl containing 20 mM HEPES/KOH pH 7.4, 3 mM MgCl2, 10 μg/ml Saponin, 5 μM GDP, 75 mM NaCl and 2% of dimethylsulphoxide (DMSO). Reaction is triggered by the addition of 5-10 μg of CHO-CRTH2 cell membranes and 0.15 nM [^35S]GTPγS. After 60 min incubation at 30° C., reaction is stopped by centrifugation at 700×g, at 4° C. for 10 minutes and supernatant is removed. The radioactivity coming from the [^35S]GTPγS bound on centrifuged cell membranes is recorded using a 1450 Micro-beta scintillation counter. For IC50 determination, increasing concentrations of compounds are incubated in presence of a fixed concentration of PGD2 (EC80). For EC50 measurements, compounds are incubated without addition of PGD2. Basal [^35S]GTPγS activity is determined without addition of any ligands or compounds. 100% [^35S]GTPγS activity is measured by the addition of 1 μM of PGD2.

CRTH2 [2] = target: T1, CRTH2; assay: Radioligand binding Scintillation Proximity Assay ([3H]PGD2, hCRTH2-CHO cell membranes); parameters: host or cells: CHO cells; settings: 1.5 nM [3H]PGD2, hCRTH2-CHO cell membranes, SPA
Outline: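 SPA competition binding at room temperature, 90 min with agitation: 1.5 nM [3H]PGD2, 10-50 μg/ml hCRTH2-CHO membrane protein, WGA SPA beads, HEPES pH 7.4 with 10 mM MnCl2, 1% DMSO. Non-specific binding defined with 10 μM PGD2; scintillation counting.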

[3] = tested on: FITC induced contact hypersensitivity in mice; assay: FITC 1 week model (FITC induced contact hypersensitivity, ear swelling); format: in vivo, Balb/C mice; settings: oral gavage, 24 h after challenge
Text: Fluorescein isothiocyanate (FITC) induced contact hypersensitivity (CHS) is a commonly used model for atopic dermatitis (AD). The hapten FITC is a small molecule that is able to elicit an immune response only when attached to a larger carrier such as a protein. It is reactive towards e-amino groups (lysine). The immune response to FITC sensitization and challenge is Th2 cytokine driven (IL-4, IL-5, IL-6, IL-10 and IL-13) and associated with elevated serum IgE levels. The skin inflammation at the site of the challenge is characterized by edema and eosinophil infiltrations.
Female 9 week old Balb/C mice were sensitized on days 0 and 1 with 0.5% FITC in acetone/dibuthylphtalate (A/DBP). One group (sham) was sensitized with A/DBP alone. On day 6 all the mice including the sham group were challenged on the right ear (inner and outer surface) with 0.5% FITC in A/DBP. The mice were treated with the compounds via oral gavage 1 h before and 7 h after the challenge. The baseline ear thickness was measured before the challenge and 24 h after the challenge. At the end of the experiment (24 h after the challenge) the mice were sacrificed. Serum and plasma samples were taken. The challenged ear was excised and stored at −80° C. Compounds of Formula (I) of the present invention were tested at 3, 10 and 30 mg/Kg.

SMILES	IC50 (CRTH2 [1])	IC50 (CRTH2 [2])	Emax (CRTH2 [1])	% inhibition of ear swelling (mean ± s.e.m.) ([3]; dose 3 mg/kg)	% inhibition of ear swelling (mean ± s.e.m.) ([3]; dose 10 mg/kg)	% inhibition of ear swelling (mean ± s.e.m.) ([3]; dose 30 mg/kg)
CC(C)S(=O)(=O)c1ccc(F)c(C#Cc2cc(Cl)ccc2OCC(=O)O)c1 [Example 102, (4-chloro-2-{[2-fluoro-5-(isopropylsulfonyl)phenyl]ethynyl}phenoxy)acetic acid]	4 nM	5 nM	–	–	–	–
CCCS(=O)(=O)c1cccc(C#Cc2cc(Cl)ccc2OCC(=O)O)c1 [Example 17, (4-chloro-2-{[3-(propylsulfonyl)phenyl]ethynyl}phenoxy)acetic acid]	–	10 nM	–	–	–	–
CCCS(=O)(=O)c1ccc(C)c(C#Cc2cc(Cl)ccc2OCC(=O)O)c1 [Example 38, (4-chloro-2-{[2-methyl-5-(propylsulfonyl)phenyl]ethynyl}phenoxy)acetic acid]	6 nM	5 nM	–	23 ± 16%	56 ± 12%	52 ± 12%
CCCS(=O)(=O)c1ccc(Cl)c(C#Cc2cc(Cl)ccc2OCC(=O)O)c1 [Example 101, (4-chloro-2-{[2-chloro-5-(propylsulfonyl)phenyl]ethynyl}phenoxy)acetic acid]	–	3 nM	–	–	–	–
CN(C)S(=O)(=O)c1cncc(C#Cc2cc(Cl)ccc2OCC(=O)O)c1 [Example 35, [4-chloro-2-({5-[(dimethylamino)sulfonyl]pyridin-3-yl}ethynyl)phenoxy]acetic acid]	126 nM	55 nM	–	–	–	–
CCCS(=O)(=O)c1ccc(F)c(C#Cc2cc(Cl)ccc2OCC(=O)O)c1 [Example 89, (4-chloro-2-{[2-fluoro-5-(propylsulfonyl)phenyl]ethynyl}phenoxy)acetic acid]	–	6 nM	–	36 ± 19%	54 ± 16%	48 ± 11%

Continued, in another order:

IC50 (CRTH2 [1])	IC50 (CRTH2 [2])	Emax (CRTH2 [1])	SMILES	% inhibition of ear swelling (mean ± s.e.m.) ([3]; dose 3 mg/kg)	% inhibition of ear swelling (mean ± s.e.m.) ([3]; dose 10 mg/kg)	% inhibition of ear swelling (mean ± s.e.m.) ([3]; dose 30 mg/kg)
–	4 nM	-13%	CN(C)S(=O)(=O)c1ccc(F)c(C#Cc2cc(Cl)ccc2OCC(=O)O)c1 [Example 107, [4-chloro-2-({5-[(dimethylamino)sulfonyl]-2-fluorophenyl}ethynyl)phenoxy]acetic acid]	–	–	–
–	4 nM	–	CC(C)S(=O)(=O)c1ccc(Cl)c(C#Cc2cc(Cl)ccc2OCC(=O)O)c1 [Example 103, (4-chloro-2-{[2-chloro-5-(isopropylsulfonyl)phenyl]ethynyl}phenoxy)acetic acid]	–	–	–
–	14 nM	-17%	O=C(O)COc1ccc(Cl)cc1C#Cc1ccc2c(c1)S(=O)(=O)c1ccccc1-2 [Example 154, {4-chloro-2-[(5,5-dioxidodibenzo[b,d]thien-3-yl)ethynyl]phenoxy}acetic acid]	41 ± 9%	49 ± 9%	54 ± 17%
